Data set [1] deals with T1, RNA-dependent DNA polymerase activity of HIV reverse transcriptase (Human immunodeficiency virus type 1 group M subtype B, UniProt P03366).
T1 construct: made in house
Kind of data set: RNA-dependent DNA polymerase activity assay of HIV reverse transcriptase. Format: biochemical, HIV-1. Conditions: 10 μM inhibitor concentration, activity in presence / in absence of analog x 100; for remaining activity at 10 µM: read-out: Residual activity (%) Polymerase. The essentials: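 Single-concentration test of mappicine analogs at 10 μM final against the RNA-dependent DNA polymerase activity of HIV RT. Value is % residual activity: polymerase activity with analog divided by activity without analog, ×100.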

Data set [2] has as its target T2, RNase H activity of HIV reverse transcriptase (Human immunodeficiency virus type 1 group M subtype B, UniProt P03366).
T2 construct: 2.5 nM of the p51/p66 RT heterodimer in the assay; made in house
As to the kind of experiment: Fluorescence (FRET)-based RNase H assay of HIV reverse transcriptase. The class given is biochemical, HIV-1. To be noted: for Residual activity (%) RNase H / remaining activity at 10 µM: 10 μM inhibitor concentration, activity in presence / in absence of analog x 100; for remaining activity at 10 µM: read-out: Residual activity (%) RNase H; for IC50: in vitro, read-out: IC50 (μM) against HIV RNase H in vitro.

The subject of data set [3] is HIV-1 replication. Kind of data set: HIV-1 replication in cultured cells (cell culture viral growth assay). The class given is cell-based.
In data set [4] the test system is HIV-1 replication. Conditions: published RNase H inhibitors; cited from earlier work.
The test system of data set [5] is cells. To be noted: cited from earlier work.
The target in data set [6] is T2, RNase H activity of HIV reverse transcriptase. To be noted: read-out: IC50 of RNase H inhibition; literature (Borkow et al. 1997); cited from earlier work.
Data set [7] concerns cells. To be noted: cited from earlier work. This is another data set of the same source.
The test system of data set [8] is mutant HIV-1 strain with V106A+Y181C in the viral reverse transcriptase. As to the kind of experiment: Replication of NNRTI-resistant mutant HIV-1 strain V106A+Y181C in cultured cells. Format: cell-based. To be noted: V106A+Y181C mutant HIV-1; read-out: EC50 of inhibition of replication of resistant virus strain.
In data set [9] the test system is mutant HIV-1 strain with K103N+Y181C in the viral reverse transcriptase. As to the kind of experiment: Replication of NNRTI-resistant mutant HIV-1 strain K103N+Y181C in cultured cells. The class given is cell-based. To be noted: K103N+Y181C mutant HIV-1; read-out: EC50 of inhibition of replication of resistant virus strain.
The mark [10] stands for this setting: Human immunodeficiency virus 1, cell culture viral growth assays, read-out: EC50 (μM) against HIV-1 replication.

Where “and” joins values, the source holds several entries; their conditions need not be identical. Equal values may be shown once. Read-outs that look alike come from different tables or passages of the source.

In general, IC50 refers to the midpoint of a concentration-inhibition curve. For orientation: EC50 means the concentration giving half of the maximal effect.

As for `CCCCCCc1c2c(nc3ccc(C)cc13)-c1cc(C(O)CCC3CCCCC3)c(C)c(=O)n1C2` (stereo not drawn) [5 (8Cδ)], the “Residual activity (%) Polymerase” value in data set [1] is listed as 73%. For the same compound, the “Residual activity (%) RNase H” value in [2] turned out to be 72%.

As for `CCCCCCc1c2c(nc3ccc(C)cc13)-c1cc(C(=O)CCC3CCCCC3)c(C)c(=O)n1C2` [5 (8Cδκ)], the “Residual activity (%) Polymerase” value in data set [1] is reported as 79%. Moreover, the “Residual activity (%) RNase H” value in data set [2] is listed as 95%.

As for `CCCCCCc1c2c(nc3ccc(C)cc13)-c1cc(C(O)Cc3ccccc3)c(C)c(=O)n1C2` (stereo not drawn) [5 (8Cε)], the “Residual activity (%) Polymerase” value in [1] is reported as 76%. The “Residual activity (%) RNase H” value in [2] turned out to be 76%.

As for `CCCCCCc1c2c(nc3ccc(C)cc13)-c1cc(C(=O)Cc3ccccc3)c(C)c(=O)n1C2` [5 (8Cεκ)], the “Residual activity (%) Polymerase” value in data set [1] amounted to 66%. Further, the “Residual activity (%) RNase H” value in data set [2] turned out to be 86%.

Turning to `CCCCCCc1c2c(nc3ccc(OC)cc13)-c1cc(C(O)CC)c(C)c(=O)n1C2` (stereo not drawn) [5 (8Dα)], the “Residual activity (%) Polymerase” value in data set [1] came out at 85%. In addition, in data set [2], the “Residual activity (%) RNase H” value came to 66%.

Consider `CCCCCCc1c2c(nc3ccc(OC)cc13)-c1cc(C(=O)CC)c(C)c(=O)n1C2` [5 (8Dακ)], for which, in data set [1], the “Residual activity (%) Polymerase” value turned out to be 51%. Further, in [2], the “Residual activity (%) RNase H” value is on record as 84%.

As to `CCCCCCc1c2c(nc3ccc(OC)cc13)-c1cc(C(O)C(C)(C)C)c(C)c(=O)n1C2` (stereo not drawn) [5 (8Dβ)], in data set [1], the “Residual activity (%) Polymerase” value was 68%. For the same compound, the “Residual activity (%) RNase H” value in data set [2] came out at 67%.

Turning to `CCCCCCc1c2c(nc3ccc(OC)cc13)-c1cc(C(=O)C(C)(C)C)c(C)c(=O)n1C2` [5 (8Dβκ)], the “Residual activity (%) Polymerase” value in data set [1] is on record as 90%. The “Residual activity (%) RNase H” value in data set [2] is given as 88%.

Consider `CCCCCCc1c2c(nc3ccc(OC)cc13)-c1cc(C(O)CCC3CCCCC3)c(C)c(=O)n1C2` (stereo not drawn) [5 (8Dδ)], for which the “Residual activity (%) Polymerase” value in [1] stood at 81%. Moreover, the “Residual activity (%) RNase H” value in [2] is on record as 63%.

On to `CCCCCCc1c2c(nc3ccc(OC)cc13)-c1cc(C(=O)CCC3CCCCC3)c(C)c(=O)n1C2` [5 (8Dδκ)], for which, in data set [1], the “Residual activity (%) Polymerase” value amounted to 65%. Further, the “Residual activity (%) RNase H” value in data set [2] is on record as 90%.

For the compound `CCCCCCc1c2c(nc3ccc(OC)cc13)-c1cc(C(O)Cc3ccccc3)c(C)c(=O)n1C2` (stereo not drawn) [5 (8Dε)], the “Residual activity (%) Polymerase” value in data set [1] was 73%. Also, the “Residual activity (%) RNase H” value in [2] amounted to 82%.

As to `Cc1ccc2nc3c(c(-c4ccccc4)c2c1)Cn1c-3cc(C(O)C(C)(C)C)c(C)c1=O` (stereo not drawn) [5 (30β)], the “Residual activity (%) Polymerase” value in [1] stood at 70%. Moreover, in [2], the “Residual activity (%) RNase H” value is recorded as 84%.

For the compound `Cc1ccc2nc3c(c(-c4ccccc4)c2c1)Cn1c-3cc(C(O)CCC2CCCCC2)c(C)c1=O` (stereo not drawn) [5 (30δ)], the “Residual activity (%) Polymerase” value in data set [1] is recorded as 74%. Moreover, the “Residual activity (%) RNase H” value in [2] worked out at 93%.

As to `CCC(O)c1cc2n(c(=O)c1C)Cc1c-2nc2ccccc2c1[Si](C)(C)C` (stereo not drawn) [5 (AG 1M)], the “Residual activity (%) Polymerase” value in data set [1] (10 µM) is on record as 89%. The “Residual activity (%) RNase H” value in [2] (10 µM) is on record as 73%.

With `CCC(O)c1cc2n(c(=O)c1C)Cc1c-2nc2ccc(NC(=O)OC(C)(C)C)cc2c1[Si](C)(C)C` (stereo not drawn) [5 (AG 2M), 2-tert-Butyloxycarbonylamino-7-(1-hydroxypropyl)-8-methyl-12-trimethylsilanyl-11H-indolizino [1,2-b]quinolin-9-one], the remaining activity at 10 µM in data set [1] was 80%. Also, in data set [2], the remaining activity at 10 µM was 47%; the IC50 is < 10 µM and 8 µM. Also, in the data set with HIV-1 replication [3] (setting [10]), the EC50 is around 5 µM.

`CCC(O)c1cc2n(c(=O)c1C)Cc1c-2nc2ccc(N)cc2c1[Si](C)(C)C` (stereo not drawn) [5 (AG 3M), 2-Amino-7-(1-hydroxypropyl)-8-methyl-12-trimethylsilanyl-1 1H-indolizino[1,2-b]quinolin-9-one]: the remaining activity at 10 µM in data set [1] stood at 123%; in data set [2], 63%.

As to `CCc1c2c(nc3ccccc13)-c1cc(C(O)CC)c(C)c(=O)n1C2` (stereo not drawn) [5 (AG 4M)], the “Residual activity (%) Polymerase” value in data set [1] was 100%. Moreover, in data set [2], the “Residual activity (%) RNase H” value is 74%.

In the case of `CCc1c2c(nc3ccc(NC(=O)OC(C)(C)C)cc13)-c1cc(C(O)CC)c(C)c(=O)n1C2` (stereo not drawn) [5 (AG 5M), 2-tert-Butyloxycarbonylamino-12-ethyl-7-(1-hydroxypropyl)-8-methyl-11H-indolizino[1,2-b]quinolin-9-one], the remaining activity at 10 µM in data set [1] was found to be 87%; in data set [2] it was 68%.

For `CCc1c2c(nc3ccc(N)cc13)-c1cc(C(O)CC)c(C)c(=O)n1C2` (stereo not drawn) [5 (AG 6M), 2-Amino-12-ethyl-7-(1-hydroxypropyl)-8-methyl-1 1H-indolizinol[1,2-b]quinolin-9-one], the remaining activity at 10 µM in data set [1] stood at 76%. Moreover, in [2], the remaining activity at 10 µM came to 57%; the IC50 is < 10 µM and 10 µM. Also, the EC50 with HIV-1 replication [3] (setting [10]) was around 5 µM.

Turning to `CCc1c2c(nc3ccc(O)cc13)-c1cc(C(O)CC)c(C)c(=O)n1C2` (stereo not drawn) [5 (AG 8M), 12-Ethyl-2-hydroxy-7-(1-hydroxypropyl)-8-methyl-11H-indolizino[1,2-b]quinolin-9-one], the remaining activity at 10 µM was 69% in data set [1] and 87% in data set [2].

Regarding `CC(C)(C)c1ccc(C(=O)NN=Cc2c(O)ccc3ccccc23)cc1` [BBNH, N-4-(t-butylbenzoyl)-2-hydroxy-1-naphthaldehyde hydrazone], the “antiviral activity against HIV-1 replication in cultured cells (in words)” value (“antiviral activity” for short) with HIV-1 replication [4] is “demonstrated antiviral activity against HIV-1 replication in cultured cells”. Moreover, the “toxicity to cells (in words)” value in the data set on cells [5] was “highly toxic to cells”. Moreover, the IC50 is 1.8 µM in [2] and around 2 µM in [6].

As to `O=C(O)C(=O)CC(=O)c1ccc(NC(=O)c2ccccc2)s1` [BTOBA, 4-[5-(benzoylamino)thien-2-yl]-2,4-dioxobutanoic acid], the “antiviral activity” value with HIV-1 replication [4] was “cannot inhibit HIV-1 replication in cultured cells”. Also, in the data set with cells [7], the “ability to penetrate cells (in words)” value is “Neither CPHM nor BTOBA are able to penetrate cells”.

`O=C(O)C(=NNc1ccc(Cl)cc1)C(=O)O` [CPHM, 2-[(4-chlorophenyl)-hydrazono]-malonic acid]: the “antiviral activity” value with HIV-1 replication [4] is on record as “cannot inhibit HIV-1 replication in cultured cells”. Besides, the “ability to penetrate cells (in words)” value with cells [7] is recorded as “Neither CPHM nor BTOBA are able to penetrate cells”.

For the compound `CCCc1c2c(nc3ccc(Cl)cc13)-c1cc(C(O)CCC3CCCCC3)c(C)c(=O)n1C2` (stereo not drawn) [Compound 7.5.6], the “% inhibition of RNase H at 20 μM” value in data set [2] (20 μM inhibitor concentration) came to 100%. Moreover, the “inhibitory activity against HIV-1 RNase H (in words)” value in data set [2] (dose-response curves FIG. 13, 10 μM or 20 μM screens) was “possess inhibitory activity against HIV-1 RNase H”. Besides, the EC50 is around 3 µM in the data set with HIV-1 replication [3] (wild-type HIV-1 in cultured cells, read-out: EC50 of inhibition of replication of wild-type HIV-1); 4.2 µM in data set [8]; 3.5 µM in data set [9].

The values are drawn from US20040077674A1, “Mappicine analogs, intermediates in the synthesis of mappicine analogs and methods of synthesis of mappicine analogs” (priority 2002, published 2004).
